Test results published in patent US20200022963A1, “PHARMACEUTICAL COMPOSITION COMPRISING BETAHISTINE” (Otolanum AG, priority 2017, published 2020).
Where two headings read alike, the source gives them in different places.

Assay: Pharmacokinetic profile after single oral, intranasal and intravenous betahistine in beagle dogs, Example 5
Assay type: in vivo
Conditions: dog; for concentration at 0 h / concentration at 5 min / concentration at 0.167 h / concentration at 0.333 h / concentration at 0.5 h / concentration at 1 h / concentration at 2 h / concentration at 3 h / concentration at 6 h / concentration at 24 h: Betahistine Plasma Concentration
Experimental: In this study, the pharmacokinetic profile of betahistine was evaluated after a single dose administration of betahistine in male and female beagle dogs (age 5-7 months; weight of 5-11 kg, within a range of 3 kg for each sex) for three routes of administration: oral, intranasal, and intravenous.
On Day 1 of the study, betahistine (BH) was delivered orally at a dose of 12 mg/kg, 24 mg/kg, or 48 mg/kg. Each treatment group comprised 8 animals (4 males and 4 females). For pharmacokinetic assessment, plasma samples were collected prior to dosing, and then at 5, 10, 20 and 30 min, 1, 2, 3, 6, 24 hours after dosing.
On Day 8 of the study, the animals that received oral BH at a dose of 12 mg/kg were administered the test betahistine composition intranasally at a dose of 40 mg betahistine dihydrochloride; the animals that received oral BH at a dose of 24 mg/kg were administered the test betahistine composition intranasally at a dose of 80 mg betahistine dihydrochloride; and the animals that received oral BH at a dose of 48 mg/kg were administered the test betahistine composition intranasally at a dose of 120 mg betahistine dihydrochloride. The test betahistine composition was delivered intranasally in a single dose via an Aptar nasal spray pump device at a total dose level of 40, 80 and 120 mg of betahistine dihydrochloride. Plasma samples were collected prior to dosing, and then at 5, 10, 20 and 30 min, 1, 2, 3, 6, 24 hours after dosing.
On Day 15 of the study, the animals that received oral BH at a dose of 12 mg/kg and the test betahistine composition intranasally at a dose of 40 mg betahistine dihydrochloride were administered a bolus intravenous injection of betahistine at a dose of 0.44 mg/kg. Plasma samples were collected prior to dosing, and then at 5, 10, 20 and 30 min, 1, 2, 3, 6, 24 hours after dosing.
Betahistine 13CD3 dihydrochloride and 2-pyridylacetic acid-D4 hydrochloride were used as respective internal standards. The calibration range for betahistine was 0.05-250 ng/mL and for 2-PAA 2.00-3000 ng/mL using a plasma sample volume of 0.50 mL.
For determination of betahistine, the method involved liquid-liquid extraction, for 2-PAA, the method involved protein precipitation. Plasma samples were prepared for betahistine by extraction under basic conditions with an organic solvent, then the organic phase was dried, reconstituted and transferred for LC/MS-MS analysis. […] Sample analysis was performed using reversed phase chromatography.

[1] = both sexes, beagle, in vivo, iv, 0.44 mg/kg
[2] = both sexes, beagle, in vivo, po, 12 mg/kg
[3] = both sexes, beagle, in vivo, po, 24 mg/kg
[4] = both sexes, beagle, in vivo, po, 48 mg/kg
[5] = female, beagle, in vivo, inhaled or intranasal, 6 mg/kg
[6] = female, beagle, in vivo, inhaled or intranasal, 13 mg/kg
[7] = female, beagle, in vivo, inhaled or intranasal, 17.7 mg/kg
[8] = female, beagle, in vivo, iv, 0.44 mg/kg
[9] = female, beagle, in vivo, po, 12 mg/kg
[10] = female, beagle, in vivo, po, 24 mg/kg

Structure (SMILES): CNCCc1ccccn1 [betahistine]
- Cmax (beagle, in vivo, oral BH 48 mg/kg, male, Day 1, read-out: Cmax): 102 ± 30.2 ng/mL
- concentration at 0 h [1]: 0.0825 ng/mL
- concentration at 5 min [1]: 50.9 ng/mL
- concentration at 0.167 h [1]: 22 ng/mL
- concentration at 0.333 h [1]: 7.03 ng/mL
- concentration at 0.5 h [1]: 4.82 ng/mL
- concentration at 1 h [1]: 0.308 ng/mL
- concentration at 2 h [1]: 0.633 ng/mL
- concentration at 3 h [1]: 0.0878 ng/mL
- concentration at 6 h [1]: 0.849 ng/mL
- concentration at 24 h [1]: 0.202 ng/mL
- concentration at 0 h [2]: 0 ng/mL
- concentration at 5 min [2]: 1.97 ng/mL
- concentration at 0.167 h [2]: 4.6 ng/mL
- concentration at 0.333 h [2]: 7.96 ng/mL
- concentration at 0.5 h [2]: 13.4 ng/mL
- concentration at 1 h [2]: 9.86 ng/mL
- concentration at 2 h [2]: 0.36 ng/mL
- concentration at 3 h [2]: 0.0181 ng/mL
- concentration at 6 h [2]: 0.00797 ng/mL
- concentration at 24 h [2]: 0.0105 ng/mL
- concentration at 0 h [3]: 0 ng/mL
- concentration at 5 min [3]: 5 ng/mL
- concentration at 0.167 h [3]: 5.15 ng/mL
- concentration at 0.333 h [3]: 15.5 ng/mL
- concentration at 0.5 h [3]: 14.9 ng/mL
- concentration at 1 h [3]: 31.9 ng/mL
- concentration at 2 h [3]: 2.83 ng/mL
- concentration at 3 h [3]: 1.16 ng/mL
- concentration at 6 h [3]: 0.21 ng/mL
- concentration at 24 h [3]: 0 ng/mL
- concentration at 0 h [4]: 0 ng/mL
- concentration at 5 min [4]: 12.1 ng/mL
- concentration at 0.167 h [4]: 22.5 ng/mL
- concentration at 0.333 h [4]: 12.9 ng/mL
- concentration at 0.5 h [4]: 26.5 ng/mL
- concentration at 1 h [4]: 56.5 ng/mL
- concentration at 2 h [4]: 21.5 ng/mL
- concentration at 3 h [4]: 6.57 ng/mL
- concentration at 6 h [4]: 0.439 ng/mL
- concentration at 24 h [4]: 0 ng/mL
- AUC(0-t) (both sexes, beagle, in vivo, IV bolus BH 0.44 mg/kg, sex-combined, Day 15, read-out: AUC(0-t)): 23 ng·h/mL
- Absolute Bioavailability (% F), AUC(0-t)/D (oral 24 mg/kg vs IV bolus 0.44 mg/kg, sex-combined): 3.01%
- AUC(0-t)/D [5]: 30.2 ± 9.31 hr*ng/mL/(mg/kg)
- Cmax [5]: 770 ng/mL
- Cmax/D [5]: 128 ± 42.1 ng/mL/(mg/kg)
- Intranasal AUC/dose [5]: 30.2 (h · ng/mL)/(mg/kg)
- Tmax [5]: 4.8 min
- AUC(0-t) (female, beagle, in vivo, inhaled or intranasal, 6 mg/kg, AUC(0-6)): 180 ± 57.3 ng·h/mL
- AUC(0-t) (female, beagle, in vivo, inhaled or intranasal, 6 mg/kg, AUC(0-t)): 181 ± 55.8 ng·h/mL
- AUC(0-inf) [6]: 480 ± 336 ng·h/mL
- AUC(0-t)/D [6]: 33.8 ± 21.8 hr*ng/mL/(mg/kg)
- Cmax [6]: 1790 ng/mL
- Cmax/D [6]: 138 ± 102 ng/mL/(mg/kg)
- Intranasal AUC/dose [6]: 33.8 (h · ng/mL)/(mg/kg)
- Tmax [6]: 8.4 min
- AUC(0-t) (female, beagle, in vivo, inhaled or intranasal, 13 mg/kg, AUC(0-6)): 432 ± 281 ng·h/mL
- AUC(0-t) (female, beagle, in vivo, inhaled or intranasal, 13 mg/kg, AUC(0-t)): 440 ± 283 ng·h/mL
- AUC(0-inf) [7]: 302 ng·h/mL
- AUC(0-t)/D [7]: 16.4 ± 0.479 hr*ng/mL/(mg/kg)
- Cmax [7]: 1330 ng/mL
- Cmax/D [7]: 75.1 ± 17.0 ng/mL/(mg/kg)
- Intranasal AUC/dose [7]: 16.4 (h · ng/mL)/(mg/kg)
- Tmax [7]: 4.8 min
- AUC(0-t) (female, beagle, in vivo, inhaled or intranasal, 17.7 mg/kg, AUC(0-6)): 277 ± 7.99 ng·h/mL
- AUC(0-t) (female, beagle, in vivo, inhaled or intranasal, 17.7 mg/kg, AUC(0-t)): 290 ± 8.47 ng·h/mL
- AUC(0-inf) [8]: 14.3 ng·h/mL
- AUC(0-t)/D [8]: 60.3 ± 40.0 hr*ng/mL/(mg/kg)
- Cmax [8]: 43.7 ng/mL
- Cmax/D [8]: 99.3 ng/mL/(mg/kg)
- Tmax [8]: 5.4 min
- Vd [8]: 10.6 L/kg
- clearance [8]: 513 mL/min/kg
- half-life [8]: 14.3 min
- AUC(0-t) (female, beagle, in vivo, iv, 0.44 mg/kg, AUC(0-6)): 16.3 ng·h/mL
- AUC(0-t) (female, beagle, in vivo, iv, 0.44 mg/kg, AUC(0-t)): 26.5 ng·h/mL
- concentration at 0 h [8]: 0.0551 ng/mL
- concentration at 5 min [8]: 43.7 ng/mL
- concentration at 0.167 h [8]: 14.8 ng/mL
- concentration at 0.333 h [8]: 6 ng/mL
- concentration at 0.5 h [8]: 4.06 ng/mL
- concentration at 1 h [8]: 0.268 ng/mL
- concentration at 2 h [8]: 0.274 ng/mL
- concentration at 3 h [8]: 0.095 ng/mL
- concentration at 6 h [8]: 0.648 ng/mL
- concentration at 24 h [8]: 0.405 ng/mL
- AUC(0-6)/D [9]: 1.33 ± 0.483 hr*ng/mL/(mg/kg)
- Cmax [9]: 14.7 ± 4.56 ng/mL
- Cmax/D [9]: 1.22 ± 0.380 ng/mL/(mg/kg)
- Oral AUC/dose [9]: 1.33 (h · ng/mL)/(mg/kg)
- Tmax [9]: 60 min
- AUC(0-t) (female, beagle, in vivo, po, 12 mg/kg, AUC(0-t)): 15.9 ± 5.8 ng·h/mL
- concentration at 0 h [9]: 0 ng/mL
- concentration at 5 min [9]: 2.59 ng/mL
- concentration at 0.167 h [9]: 6.46 ng/mL
- concentration at 0.333 h [9]: 10.1 ng/mL
- concentration at 0.5 h [9]: 7.8 ng/mL
- concentration at 1 h [9]: 14.1 ng/mL
- concentration at 2 h [9]: 0.263 ng/mL
- concentration at 3 h [9]: 0 ng/mL
- concentration at 6 h [9]: 0 ng/mL
- concentration at 24 h [9]: 0 ng/mL
- AUC(0-6)/D [10]: 1.71 ± 0.748 hr*ng/mL/(mg/kg)
- AUC(0-inf) [10]: 27.7 ng·h/mL
- Cmax [10]: 38 ± 26.1 ng/mL
- Cmax/D [10]: 1.58 ± 1.09 ng/mL/(mg/kg)
- Oral AUC/dose [10]: 1.71 (h · ng/mL)/(mg/kg)
- Tmax [10]: 60 min
- half-life [10]: 84.6 min
- AUC(0-t) (female, beagle, in vivo, po, 24 mg/kg, AUC(0-6)): 26.2 ng·h/mL
- AUC(0-t) (female, beagle, in vivo, po, 24 mg/kg, AUC(0-t)): 41 ± 17.9 ng·h/mL
- concentration at 0 h [10]: 0 ng/mL
- concentration at 5 min [10]: 5.32 ng/mL
- concentration at 0.167 h [10]: 5.24 ng/mL
- concentration at 0.333 h [10]: 7.13 ng/mL
- concentration at 0.5 h [10]: 12 ng/mL
- concentration at 1 h [10]: 36.8 ng/mL
- concentration at 2 h [10]: 3.58 ng/mL
- concentration at 3 h [10]: 1.71 ng/mL
